Data taken from patent publication US20180179198A1, “TRICYCLIC MODULATORS OF TNF SIGNALING” (AbbVie Inc., priority 2015, published 2018).

target: TNFα trimer (Homo sapiens, UniProt P01375); test: TNFα FP Competitive Binding Assay; settings: fluorescence polarization competition; 20 nM TNFα trimer, 1 nM OregonGreen488 probe; read-out: TNF IC50 (TNFα FP binding assay IC50)
In short: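 Fluorescence polarization displacement: 20 nM TNFα trimer (60 nM protein) with 1 nM fluorescein-labelled bis-isoquinoline probe in HEPES/NaCl/EDTA/Triton X-100 buffer. 12-point 1:3 compound series, top final 338 μM (3.4% DMSO) or 100 μM (2.0% DMSO); 18-24 h at 37 °C, then 1 h rt before background-subtracted mP read; variable-slope curve fit.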

Sequence of TNFα trimer (P01375 77-233 limits assumed): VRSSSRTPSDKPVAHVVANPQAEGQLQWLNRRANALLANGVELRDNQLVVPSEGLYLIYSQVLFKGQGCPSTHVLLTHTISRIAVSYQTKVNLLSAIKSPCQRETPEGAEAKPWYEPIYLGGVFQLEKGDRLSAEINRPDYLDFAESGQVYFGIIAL

IC50, 1000 to 10000 nM:
CC(C)(O)c1ncc(-c2ccc3nc4n(c3n2)C2(COC4)CC(O)c3ccccc32)cn1 (stereo not drawn) [Example 81, 2′-(2-(2-Hydroxypropan-2-yl)pyrimidin-5-yl)-2,3,6′,8′-tetrahydrospiro[indene-1,9′-pyrido[3′,2′:4,5]imidazo[2,1-c][1,4]oxazin]-3-ol]
O=C1NCCC12CCN(c1ncc(-c3ccc4nc5n(c4c3)[C@@H](c3ccccc3)COC5)cn1)C2 (stereo partly drawn) [G.1]
O=C(O)CC1CCCN(c2ncc(-c3ccc4nc5n(c4c3)[C@@H](c3ccccc3)COC5)cn2)C1 (stereo partly drawn) [G.3]
OCCCN1CCN(c2ncc(-c3ccc4nc5n(c4c3)[C@@H](c3ccccc3)COC5)cn2)CC1 [G.5]
O=C1NCNC12CCN(c1ncc(-c3ccc4nc5n(c4c3)[C@@H](c3ccccc3)COC5)cn1)CC2 [G.6]
CC(O)C1CCN(c2ncc(-c3ccc4nc5n(c4c3)[C@@H](c3ccccc3)COC5)cn2)CC1 (stereo partly drawn) [G.7]
O=C1CN(c2ncc(-c3ccc4nc5n(c4c3)[C@@H](c3ccccc3)COC5)cn2)CCCN1 [G.9]
O=C(O)CCC1CCN(c2ncc(-c3ccc4nc5n(c4c3)[C@@H](c3ccccc3)COC5)cn2)CC1 [G.10]
CN1CCC(N2CCN(c3ncc(-c4ccc5nc6n(c5c4)[C@@H](c4ccccc4)COC6)cn3)CC2)CC1 [G.13]
FC(F)(F)C1CN(c2ncc(-c3ccc4nc5n(c4c3)[C@@H](c3ccccc3)COC5)cn2)CCO1 (stereo partly drawn) [G.15]
c1ccc([C@H]2COCc3nc4ccc(-c5cnc(N6CCC7(COC7)C6)nc5)cc4n32)cc1 [G.16]
CS(=O)(=O)[C@@H]1CCN(c2ncc(-c3ccc4nc5n(c4c3)[C@@H](c3ccccc3)COC5)cn2)C1 [G.18]
CS(=O)(=O)NC1CCN(c2ncc(-c3ccc4nc5n(c4c3)[C@@H](c3ccccc3)COC5)cn2)CC1 [G.19]
CN1CCC(C2CCN(c3ncc(-c4ccc5nc6n(c5c4)[C@@H](c4ccccc4)COC6)cn3)CC2)CC1 [G.21]
CC1CN(c2ncc(-c3ccc4nc5n(c4c3)[C@@H](c3ccccc3)COC5)cn2)CC(C)O1 (stereo partly drawn) [G.23]
O=C1OCC2CN(c3ncc(-c4ccc5nc6n(c5c4)[C@@H](c4ccccc4)COC6)cn3)CCN12 (stereo partly drawn) [G.27]
CS(=O)(=O)C1CCN(c2ncc(-c3ccc4nc5n(c4c3)[C@@H](c3ccccc3)COC5)cn2)C1 (stereo partly drawn) [G.29]
OCCC1(O)CCN(c2ncc(-c3ccc4nc5n(c4c3)[C@@H](c3ccccc3)COC5)cn2)C1 (stereo partly drawn) [G.31]
CS(=O)(=O)C1(CO)CCN(c2ncc(-c3ccc4nc5n(c4c3)[C@@H](c3ccccc3)COC5)cn2)CC1 [G.33]
O=C(O)C1CCN(c2ncc(-c3ccc4nc5n(c4c3)C(c3ccccc3)CCC5)cn2)CC1 (stereo not drawn) [H.2]
O=C1CN(c2ncc(-c3ccc4nc5n(c4c3)C(c3ccccc3)CCC5)cn2)CCN1 (stereo not drawn) [H.3]
OC1(c2cccc(Cl)c2)CCCc2nc3ccc(-c4cnc(N5CCOCC5)nc4)cn3c21 (stereo not drawn) [I.1, 9-(3-Chlorophenyl)-2-(2-morpholinopyrimidin-5-yl)-6,7,8,9-tetrahydrobenzo[4,5]imidazo[1,2-a]pyridin-9-ol]
OC1(c2ccccc2)CCCc2nc3ccc(-c4cnc(N5CCOCC5)nc4)cn3c21 (stereo not drawn) [I.2]
Cc1cccc(C2(O)CCCc3nc4ccc(-c5cnc(N6CCOCC6)nc5)cn4c32)c1 (stereo not drawn) [I.3]
OC1(c2cccc(F)c2)CCCc2nc3ccc(-c4cnc(N5CCOCC5)nc4)cn3c21 (stereo not drawn) [I.4]
Cc1c(F)cccc1C1(O)CCCc2nc3ccc(-c4cnc(N5CCOCC5)nc4)cn3c21 (stereo not drawn) [I.5]
OC1(c2ccc(F)cc2)CCCc2nc3ccc(-c4cnc(N5CCOCC5)nc4)cn3c21 (stereo not drawn) [I.6]
OC1(c2cc(F)cc(Cl)c2)CCCc2nc3ccc(-c4cnc(N5CCOCC5)nc4)cn3c21 (stereo not drawn) [I.7]
Cc1ccc(C2(O)CCCc3nc4ccc(-c5cnc(N6CCOCC6)nc5)cn4c32)cc1 (stereo not drawn) [I.8]
OC1(c2cccc(Cl)c2)CCCCc2nc3ccc(-c4cnc(N5CCOCC5)nc4)cn3c21 (stereo not drawn) [J.2]
Cc1cccc(C2(O)CCCCc3nc4ccc(-c5cnc(N6CCOCC6)nc5)cn4c32)c1 (stereo not drawn) [J.3]
OC1(c2ccc(F)cc2)CCCCc2nc3ccc(-c4cnc(N5CCOCC5)nc4)cn3c21 (stereo not drawn) [J.4]
OC1(c2cc(F)cc(Cl)c2)CCCCc2nc3ccc(-c4cnc(N5CCOCC5)nc4)cn3c21 (stereo not drawn) [J.5]
COc1ccc(C2(O)CCCCc3nc4ccc(-c5cnc(N6CCOCC6)nc5)cn4c32)cc1 (stereo not drawn) [J.6]
Cc1ccc(C2(O)CCCCc3nc4ccc(-c5cnc(N6CCOCC6)nc5)cn4c32)cc1 (stereo not drawn) [J.7]
OC1(c2ccc(Cl)cc2)CCCCc2nc3ccc(-c4cnc(N5CCOCC5)nc4)cn3c21 (stereo not drawn) [J.8]

IC50, < 1000 nM:
CC(C)(N)c1ncc(-c2ccc3nc4n(c3n2)C2(CCc3ccccc32)COC4)cn1 (stereo not drawn) [Example 80, 2-(5-(2,3-Dihydro-6′H,8′H-spiro[indene-1,9′-pyrido[3′,2′:4,5]imidazo[2,1-c][1,4]oxazin]-2′-yl)pyrimidin-2-yl)propan-2-amine]
FC1(F)CCN(c2ncc(-c3ccc4nc5n(c4n3)C(c3ccccc3)COC5)cn2)CC1 (stereo not drawn) [Example 82]
O[C@H]1CC[C@H](Oc2cc(-c3ccc4nc5n(c4n3)[C@@H](c3ccccc3)CC5)ccn2)CC1 [Example 83, (1R,4R)-4-((4-((R)-8-Phenyl-7,8-dihydro-6H-pyrrolo[2′,1′:2,3]imidazo[4,5-b]pyridin-2-yl)pyridin-2-yl)oxy)cyclohexanol]
OC1CC2(CCN(c3ncc(-c4ccc5nc6n(c5c4)[C@@H](c4ccccc4)CC6)cn3)CC2)C1 [F.1]
OC1CCN(c2ncc(-c3ccc4nc5n(c4c3)[C@@H](c3ccccc3)CC5)cn2)CC1(F)F (stereo partly drawn) [F.2]
OC1CCN(c2ncc(-c3ccc4nc5n(c4c3)[C@@H](c3ccccc3)CC5)cn2)CC1 [F.3]
O=S1(=O)CCN(c2ncc(-c3ccc4nc5n(c4c3)[C@@H](c3ccccc3)CC5)cn2)CC1 [F.4]
CC1CN(c2ncc(-c3ccc4nc5n(c4c3)[C@@H](c3ccccc3)COC5)cn2)CCO1 (stereo partly drawn) [G.2]
OCC1CCCN(c2ncc(-c3ccc4nc5n(c4c3)[C@@H](c3ccccc3)COC5)cn2)C1 (stereo partly drawn) [G.4]
c1ccc([C@H]2COCc3nc4ccc(-c5cnc(N6CCC7(CC6)COC7)nc5)cc4n32)cc1 [G.8]
OC1CCCN(c2ncc(-c3ccc4nc5n(c4c3)[C@@H](c3ccccc3)COC5)cn2)CC1 (stereo partly drawn) [G.11]
NS(=O)(=O)N1CCN(c2ncc(-c3ccc4nc5n(c4c3)[C@@H](c3ccccc3)COC5)cn2)CC1 [G.12]
OCC1(F)CCN(c2ncc(-c3ccc4nc5n(c4c3)[C@@H](c3ccccc3)COC5)cn2)CC1 [G.14]
OCCC1(O)CCN(c2ncc(-c3ccc4nc5n(c4c3)[C@@H](c3ccccc3)COC5)cn2)CC1 [G.20]
CC1(O)CCN(c2ncc(-c3ccc4nc5n(c4c3)[C@@H](c3ccccc3)COC5)cn2)CC1 [G.22]
CS(=O)(=O)N1CCN(c2ncc(-c3ccc4nc5n(c4c3)[C@@H](c3ccccc3)COC5)cn2)CC1 [G.24]
c1ccc([C@H]2COCc3nc4ccc(-c5cnc(N6CCn7cnnc7C6)nc5)cc4n32)cc1 [G.28]
O=C1CN(c2ncc(-c3ccc4nc5n(c4c3)[C@@H](c3ccccc3)COC5)cn2)CCN1 [G.30]
c1ccc([C@H]2COCc3nc4ccc(-c5cnc(N6CCCOCC6)nc5)cc4n32)cc1 [G.32]
OC1CC2(CCN(c3ncc(-c4ccc5nc6n(c5c4)[C@@H](c4ccccc4)COC6)cn3)C2)C1 (stereo partly drawn) [G.34]
OCC1CN(c2ncc(-c3ccc4nc5n(c4c3)[C@@H](c3ccccc3)COC5)cn2)CCO1 (stereo partly drawn) [G.35]
OC1(c2cccc(F)c2)CCCCc2nc3ccc(-c4cnc(N5CCOCC5)nc4)cn3c21 (stereo not drawn) [J.1]
Clc1cccc(C2CCCc3nc4ccc(-c5cnc(N6CCOCC6)nc5)cn4c32)c1 (stereo not drawn) [K.1]
CC(C)(O)c1ncc(-c2ccc3nc4n(c3n2)C(c2ccccc2)CC4)cn1 (stereo not drawn) [L.1]
O=C1CN(c2ncc(-c3ccc4nc5n(c4n3)C(c3ccccc3)CC5)cn2)CCN1 (stereo not drawn) [L.2]
OC1CCN(c2ncc(-c3ccc4nc5n(c4n3)C(c3ccccc3)CC5)cn2)CC1 (stereo not drawn) [L.3, 1-(5-(8-phenyl-7,8-dihydro-6H-pyrrolo[2′,1′:2,3]imidazo[4,5-b]pyridin-2-yl)pyrimidin-2-yl)piperidin-4-ol]
O=C1NCC2CN(c3ncc(-c4ccc5nc6n(c5n4)C(c4ccccc4)CC6)cn3)CCN12 (stereo not drawn) [L.4]
Fc1cccc(C2CCc3nc4ccc(-c5cnc(N6CCOCC6)nc5)nc4n32)c1 (stereo not drawn) [M.1]
CC(C)(O)c1ncc(-c2ccc3nc4n(c3n2)C(c2cccc(F)c2)CC4)cn1 (stereo not drawn) [M.2]
O=C1CN(c2ncc(-c3ccc4nc5n(c4n3)C(c3cccc(F)c3)CC5)cn2)CCN1 (stereo not drawn) [M.3]

IC50, 10000 to 100000 nM:
c1ccc([C@H]2COCc3nc4ccc(-c5cnc(N6CC(N7CCOCC7)C6)nc5)cc4n32)cc1 [G.17]
O[C@H]1CN(c2ncc(-c3ccc4nc5n(c4c3)[C@@H](c3ccccc3)COC5)cn2)C[C@@H]1O [G.25]
O[C@@H]1CN(c2ncc(-c3ccc4nc5n(c4c3)[C@@H](c3ccccc3)COC5)cn2)C[C@H]1O [G.26]
O=C(O)C1CN(c2ncc(-c3ccc4nc5n(c4c3)C(c3ccccc3)CCC5)cn2)C1 (stereo not drawn) [H.1]
COc1cc(OC)cc(C2(O)CCCCc3nc4ccc(-c5cnc(N6CCOCC6)nc5)cn4c32)c1 (stereo not drawn) [J.9]
COc1cccc(C2(O)CCCCc3nc4ccc(-c5cnc(N6CCOCC6)nc5)cn4c32)c1 (stereo not drawn) [J.10]
